Results as given in patent US11339171B2, “MDM2 inhibitors” (Gan & Lee Pharmaceuticals, priority 2017, dated 2022).

Tests used:
MDM2 = target: T1, MDM2 (Homo sapiens, UniProt Q00987); test: Inhibition test of MDM2-P53 (GST-MDM2, Biotin-P53, Anti-GST-Tb, SA-XL665); assay type: binding
T1 construct: made in house
Summary of the method: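 Binding was measured by TR-FRET with GST-MDM2 at 4 nM final in PBS with 0.1% BSA, 5 mM DTT and 1 mM AEBSF. Compounds were tested as twelve-point 5-fold dilutions and incubated with the detection mix for 90 min at 25 °C with shaking before plate-reader reading and curve fitting.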

[1] = test system: human osteosarcoma cell line SJSA-1; test: Inhibition of proliferation of human osteosarcoma cell line SJSA-1 (DAPI staining, In Cell Analyzer); conditions: Homo sapiens, SJSA-1, 72 h, read-out: IC50 (nM), inhibitory activity on proliferation of human osteosarcoma cell line SJSA-1, SJSA-1, incubated 72 h

T1 sequence (Q00987 whole entry): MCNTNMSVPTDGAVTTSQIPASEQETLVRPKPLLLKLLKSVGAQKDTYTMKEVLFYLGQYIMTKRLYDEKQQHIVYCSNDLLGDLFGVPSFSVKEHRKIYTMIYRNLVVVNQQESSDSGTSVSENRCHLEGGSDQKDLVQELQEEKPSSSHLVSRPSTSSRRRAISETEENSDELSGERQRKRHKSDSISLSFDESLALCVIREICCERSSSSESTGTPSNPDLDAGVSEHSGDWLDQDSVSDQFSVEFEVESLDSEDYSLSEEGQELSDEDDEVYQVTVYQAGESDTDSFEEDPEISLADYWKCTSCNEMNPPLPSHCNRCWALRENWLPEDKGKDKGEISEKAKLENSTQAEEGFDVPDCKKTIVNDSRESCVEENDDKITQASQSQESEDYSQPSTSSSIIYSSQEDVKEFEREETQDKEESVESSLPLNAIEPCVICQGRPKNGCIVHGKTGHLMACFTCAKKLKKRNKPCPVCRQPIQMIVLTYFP

| SMILES | IC50 (MDM2) [nM] | IC50 [1] [nM] |
| --- | --- | --- |
| CCN(C)c1ccc(-c2nc3c(n2C(C)C)[C@@]2(C(=O)Nc4cc(Cl)ccc42)N(c2cc(Cl)ccc2C)C3=O)c(OC)c1 [Example S-99, (S)-6-chloro-5′-(5-chloro-2-methylphenyl)-2′-(4-(ethyl(methyl)amino)-2-methoxyphenyl)-3′-isopropyl-3′H-spiro[dihydroindole-3,4′-pyrrolo[3,4-d]imidazole]-2,6′(5′H)-dione] | 2.56 | 34.2 |
| CCOc1ccc(-c2nc3c(n2C(C)C)[C@@]2(C(=O)Nc4cc(Cl)ccc42)N(c2cccc(Cl)c2)C3=O)c(OC)c1 [Example S-100, (S)-6-chloro-5′-(3-chlorophenyl)-2′-(4-ethoxy-2-methoxyphenyl)-3′-isopropyl-3′H-spiro[dihydroindole-3,4′-pyrrolo[3,4-d]imidazole]-2,6′(5′H)-dione] | 3.14 | 1210 |
| COc1cc(C(C)(C)C)ccc1-c1nc2c(n1C(C)C)[C@@]1(C(=O)Nc3cc(Cl)ccc31)N(c1cc(Cl)ccc1C)C2=O [Example S-101, (S)-2′-(4-(tert-butyl)-2-methoxyphenyl)-6-chloro-5′-(5-chloro-2-methylphenyl)-3′-isopropyl-3′H-spiro[dihydroindole-3,4′-pyrrolo[3,4-d]imidazole]-2,6′(5′H)-dione] | 9.86 | 48.5 |
| CCOc1cc(OC)c(-c2nc3c(n2C(C)C)[C@@]2(C(=O)Nc4cc(Cl)ccc42)N(c2cccc(Cl)c2)C3=O)cn1 [Example S-102, (S)-6-chloro-5′-(3-chlorophenyl)-2′-(6-ethoxy-4-methoxypyridin-3-yl)-3′-isopropyl-3′H-spiro[dihydroindole-3,4′-pyrrolo[3,4-d]imidazole]-2,6′(5′H)-dione] | 2.01 | 57.4 |
| COc1cc(N(C)C)ccc1-c1nc2c(n1C(C)C)[C@@]1(C(=O)Nc3cc(Cl)ccc31)N(c1cccc(Cl)c1)C2=O [Example S-104, (S)-6-chloro-5′-(3-chlorophenyl)-2′-(4-(dimethylamino)-2-methoxyphenyl)-3′-isopropyl-3′H-spiro[dihydroindole-3,4′-pyrrolo[3,4-d]imidazole]-2,6′(5′H)-dione] | 2.26 | 266 |
| CCN(CC)c1ccc(-c2nc3c(n2C(C)C)[C@@]2(C(=O)Nc4cc(Cl)ccc42)N(c2cc(Cl)ccc2C)C3=O)c(OC)c1 [Example S-105, (S)-6-chloro-5′-(5-chloro-2-methylphenyl)-2′-(4-(diethylamino)-2-methoxyphenyl)-3′-isopropyl-3′H-spiro[dihydroindole-3,4′-pyrrolo[3,4-d]imidazole]-2,6′(5′H)-dione] | 11.2 | 243 |
| COc1cc(C2CC2)ncc1-c1nc2c(n1C(C)C)[C@@]1(C(=O)Nc3cc(Cl)ccc31)N(c1cccc(Cl)c1)C2=O [Example S-106, (S)-6-chloro-5′-(3-chlorophenyl)-2′-(6-cyclopropyl-4-methoxypyridin-3-yl)-3′-isopropyl-3′H-spiro[dihydroindole-3,4′-pyrrolo[3,4-d]imidazole]-2,6′(5′H)-dione] | 2.59 | 33.5 |
| CCc1ccc(-c2nc3c(n2C(C)C)[C@@]2(C(=O)Nc4cc(Cl)ccc42)N(c2cccc(Cl)c2)C3=O)c(OC)c1 [Example S-107, (S)-6-chloro-5′-(3-chlorophenyl)-2′-(4-ethyl-2-methoxyphenyl)-3′-isopropyl-3′H-spiro[dihydroindole-3,4′-pyrrolo[3,4-d]imidazole]-2,6′(5′H)-dione] | 4.55 | 115 |
| COc1cc(C2CC2)cc(OC)c1-c1nc2c(n1C(C)C)[C@@]1(C(=O)Nc3cc(Cl)ccc31)N(c1cc(Cl)ccc1C)C2=O [Example S-108, (S)-6-chloro-5′-(5-chloro-2-methylphenyl)-2′-(4-cyclopropyl-2,6-dimethoxyphenyl)-3′-isopropyl-3′H-spiro[dihydroindole-3,4′-pyrrolo[3,4-d]imidazole]-2,6′(5′H)-dione] | 8.87 | 28.8 |
| COc1cc(C)ccc1-c1nc2c(n1C(C)C)[C@@]1(C(=O)Nc3cc(Cl)ccc31)N(c1cccc(Cl)c1)C2=O [Example S-109, (S)-6-chloro-5′-(3-chlorophenyl)-3′-isopropyl-2′-(2-methoxy-4-methylphenyl)-3′H-spiro[dihydroindole-3,4′-pyrrolo[3,4-d]imidazole]-2,6′(5′H)-dione] | 2.34 | 54.6 |
| COc1cc(OC2CC2)ncc1-c1nc2c(n1C(C)C)[C@@]1(C(=O)Nc3cc(Cl)ccc31)N(c1cc(Cl)ccc1C)C2=O [Example S-110, (S)-6-chloro-5′-(5-chloro-2-methylphenyl)-2′-(6-cyclopropoxy-4-methoxypyridin-3-yl)-3′-isopropyl-3′H-spiro[dihydroindole-3,4′-pyrrolo[3,4-d]imidazole]-2,6′(5′H)-dione] | 1.6 | 78 |
| COc1cc(N(C)C)ncc1-c1nc2c(n1C(C)C)[C@@]1(C(=O)Nc3cc(Cl)ccc31)N(c1cc(Cl)ccc1C)C2=O [Example S-111, (S)-6-chloro-5′-(5-chloro-2-methylphenyl)-2′-(6-(dimethylamino)-4-methoxypyridin-3-yl)-3′-isopropyl-3′H-spiro[dihydroindole-3,4′-pyrrolo[3,4-d]imidazole]-2,6′(5′H)-dione] | 1.52 | 13 |
| COc1nc(N(C)C)ncc1-c1nc2c(n1C(C)C)[C@@]1(C(=O)Nc3cc(Cl)ccc31)N(c1cccc(Cl)c1)C2=O [Example S-112, (S)-6-chloro-5′-(3-chlorophenyl)-2′-(2-(dimethylamino)-4-methoxypyrimidin-5-yl)-3′-isopropyl-3′H-spiro[dihydroindole-3,4′-pyrrolo[3,4-d]imidazole]-2,6′(5′H)-dione] | 1.15 | 90.6 |
| COc1cc(N(C)C)ncc1-c1nc2c(n1C(C)C)[C@@]1(C(=O)Nc3cc(Cl)ccc31)N(c1cccc(Cl)c1)C2=O [Example S-113, (S)-6-chloro-5′-(3-chlorophenyl)-2′-(6-(dimethylamino)-4-methoxypyridin-3-yl)-3′-isopropyl-3′H-spiro[dihydroindole-3,4′-pyrrolo[3,4-d]imidazole]-2,6′(5′H)-dione] | 1.25 | 26.7 |
| COc1nc(N2CCCC2)ncc1-c1nc2c(n1C(C)C)[C@@]1(C(=O)Nc3cc(Cl)ccc31)N(c1cc(Cl)ccc1C)C2=O [Example S-114, (S)-6-chloro-5′-(5-chloro-2-methylphenyl)-3′-isopropyl-2′-(4-methoxy-2-(pyrrolidine-1-yl)pyrimidin-5-yl)-3′H-spiro[dihydroindole-3,4′-pyrrolo[3,4-d]imidazole]-2,6′(5′H)-dione] | 3.2 | 10.1 |
| COc1cc(C2CC2)ccc1-c1nc2c(n1C(C)C)[C@@]1(C(=O)Nc3cc(Cl)ccc31)N(c1cccc(Cl)c1)C2=O [Example S-116, (S)-6-chloro-5′-(3-chlorophenyl)-2′-(4-cyclopropyl-2-methoxyphenyl)-3′-isopropyl-3′H-spiro[dihydroindole-3,4′-pyrrolo[3,4-d]imidazole]-2,6′(5′H)-dione] | 4.18 | 213 |
| COc1nc(N2CCC2)ncc1-c1nc2c(n1C(C)C)[C@@]1(C(=O)Nc3cc(Cl)ccc31)N(c1cc(Cl)ccc1C)C2=O [Example S-117, (S)-2′-(2-(12zetidine-1-yl)-4-methoxypyrimidin-5-yl)-6-chloro-5′-(5-chloro-2-methylphenyl)-3′-isopropyl-3′H-spiro[dihydroindole-3,4′-pyrrolo[3,4-d]imidazole]-2,6′(5′H)-dione] | 2.15 | 14.4 |
